Experimental data published in patent publication US12582641B2, “Sulfur-containing compound based on glutarimide skeleton and application thereof” (SHANGHAITECH UNIVERSITY, priority 2019, dated 2026).
Read-outs that look alike come from different tables or passages of the source.

Tested on: MM.1S cells
Experiment: Proliferation inhibition (IC50) in MM.1S cells, cell viability assay
Conditions: Homo sapiens, MM1.S, 72 h
[1] = read-out: IC50 (nM), proliferation inhibitory activity of MM.1S cells (half inhibitory concentration)

SMILES | IC50 [1] | IC50 (read-out: IC50 against MM.1S cells (proliferation inhibition))
O=C1CCC(N2Cc3c(SCCCCCCCCSc4cccc5c4CN(C4CCC(=O)NC4=O)C5=O)cccc3C2=O)C(=O)N1 (stereo not shown) [SIAIS1216137B, 3,3′-((octane-1,8-diylbis(sulfanediyl))bis(1-oxoisoindoline-4,2-diyl))bis(piperidine-2,6-dione)] | 1.41 nM | 
CCN(CC)CCCCCSc1cccc2c1CN(C1CCC(=O)NC1=O)C2=O (stereo not shown) [SIAIS1216139, 3-(4-((5-(diethylamino)pentyl)thio)-1-oxoisoindolin-2-yl)piperidine-2,6-dione] | 4.06 ± 0.64 nM | 
CNCCCCCSc1cccc2c1CN(C1CCC(=O)NC1=O)C2=O (stereo not shown) [SIAIS1216141, 3-(4-((5-(methylamino)pentyl)thio)-1-oxoisoindolin-2-yl)piperidine-2,6-dione] | 12.6 ± 3.47 nM | 
O=C1CCC(N2Cc3c(SCCCCCCCCN4CCOCC4)cccc3C2=O)C(=O)N1 (stereo not shown) [SIAIS1216143, 3-(4-((8-morpholinooctyl)thio)-1-oxoisoindolin-2-yl)piperidine-2,6-dione] | 0.17 ± 0.04 nM | 
O=C1CCC(N2Cc3c(SCCCCCCCCN4CCNCC4)cccc3C2=O)C(=O)N1 (stereo not shown) [SIAIS1216145, 3-(1-oxo-4-((8-(piperazin-1-yl)octyl)thio)isoindolin-2-yl)piperidine-2,6-dione] | 3.86 ± 0.87 nM | 
CCN(CC)CCCCCCCCSc1cccc2c1CN(C1CCC(=O)NC1=O)C2=O (stereo not shown) [SIAIS1216147, 3-(4-((8-(diethylamino)octyl)thio)-1-oxoisoindolin-2-yl)piperidine-2,6-dione] | 0.19 ± 0.04 nM | 
CN(C)CCCCCCCCSc1cccc2c1CN(C1CCC(=O)NC1=O)C2=O (stereo not shown) [SIAIS1216149, 3-(4-((8-(dimethylamino)octyl)thio)-1-oxoisoindolin-2-yl)piperidine-2,6-dione] | 0.32 ± 0.15 nM | 
CNCCCCCCCCSc1cccc2c1CN(C1CCC(=O)NC1=O)C2=O (stereo not shown) [SIAIS1216151, 3-(4-((8-(methylamino)octyl)thio)-1-oxoisoindolin-2-yl)piperidine-2,6-dione] | 0.33 ± 0.15 nM | 
O=C1CCC(N2Cc3c(SCCCO)cccc3C2=O)C(=O)N1 (stereo not shown) [SIAIS1216189, 3-(4-((3-hydroxypropyl)thio)-1-oxoisoindolin-2-yl)piperidine-2,6-dione] | 2.25 nM | 
CN(C)CCOCCOCCSc1cccc2c1CN(C1CCC(=O)NC1=O)C2=O (stereo not shown) [SIAIS1216195, 3-(4-((2-(2-(2-(dimethylamino)ethoxy)ethoxy)ethyl)thio)-1-oxoisoindolin-2-yl)piperidine-2,6-dione] | 4.96 ± 0.54 nM | 
O=C1CCC(N2Cc3c(SCCCCCCCCN4CCCCC4)cccc3C2=O)C(=O)N1 (stereo not shown) [SIAIS1220009, 3-(1-oxo-4-((8-(piperidin-1-yl)octyl)thio)isoindolin-2-yl)piperidine-2,6-dione] | 0.12 ± 0.03 nM | ~0.12 nM
CN1CCN(CCCCCCCCSc2cccc3c2CN(C2CCC(=O)NC2=O)C3=O)CC1 (stereo not shown) [SIAIS1220011, 3-(4-((8-(4-methylpiperazin-1-yl)octyl)thio)-1-oxoisoindolin-2-yl)piperidine-2,6-dione] | 0.57 ± 0.21 nM | 
O=C1CCC(N2Cc3c(SCCCCCCCCN4CCCNCC4)cccc3C2=O)C(=O)N1 (stereo not shown) [SIAIS1220017, 3-(4-((8-(1,4-diazepan-1-yl)octyl)thio)-1-oxoisoindolin-2-yl)piperidine-2,6-dione] | 2.77 nM | 
O=C1CCC(N2Cc3c(SCCCCCCCCN4CCC(N5CCNCC5)CC4)cccc3C2=O)C(=O)N1 (stereo not shown) [SIAIS1220019, 3-(1-oxo-4-((8-(4-(piperazin-1-yl)piperidin-1-yl)octyl)thio)isoindolin-2-yl)piperidine-2,6-dione] | 2.08 nM | 
CC(C)N(CCCCCCCCSc1cccc2c1CN(C1CCC(=O)NC1=O)C2=O)C(C)C (stereo not shown) [SIAIS1220021, 3-(4-((8-(diisopropylamino)octyl)thio)-1-oxoisoindolin-2-yl)piperidine-2,6-dione] | 0.16 ± 0.05 nM | 
O=C1CCC(N2Cc3c(SCCCCCCCCCCN4CCOCC4)cccc3C2=O)C(=O)N1 (stereo not shown) [SIAIS1220023, 3-(4-((10-morpholinodecyl)thio)-1-oxoisoindolin-2-yl)piperidine-2,6-dione] | 0.46 ± 0.19 nM | 
CCN(CC)CCCCCCCCCCSc1cccc2c1CN(C1CCC(=O)NC1=O)C2=O (stereo not shown) [SIAIS1220025, 3-(4-((10-(diethylamino)decyl)thio)-1-oxoisoindolin-2-yl)piperidine-2,6-dione] | 0.49 ± 0.05 nM | 
O=C1CCC(N2Cc3c(SCCCCCCN4CCOCC4)cccc3C2=O)C(=O)N1 (stereo not shown) [SIAIS1220027, 3-(4-((6-morpholinohexyl)thio)-1-oxoisoindolin-2-yl)piperidine-2,6-dione] | 0.7 nM | 
CCN(CC)CCCCCCSc1cccc2c1CN(C1CCC(=O)NC1=O)C2=O (stereo not shown) [SIAIS1220029, 3-(4-((6-(diethylamino)hexyl)thio)-1-oxoisoindolin-2-yl)piperidine-2,6-dione] | 1.13 nM | 
O=C1CCC(N2Cc3c(SCCCCCCCN4CCOCC4)cccc3C2=O)C(=O)N1 (stereo not shown) [SIAIS1220031, 3-(4-((7-morpholinoheptyl)thio)-1-oxoisoindolin-2-yl)piperidine-2,6-dione] | 0.22 ± 0.04 nM | 
CCN(CC)CCCCCCCSc1cccc2c1CN(C1CCC(=O)NC1=O)C2=O (stereo not shown) [SIAIS1220033, 3-(4-((7-(diethylamino)heptyl)thio)-1-oxoisoindolin-2-yl)piperidine-2,6-dione] | 0.23 ± 0.08 nM | 
CCN(CC)CCNCCCCCSc1cccc2c1CN(C1CCC(=O)NC1=O)C2=O (stereo not shown) [SIAIS1220035, 3-(4-((5-((2-(diethylamino)ethyl)amino)pentyl)thio)-1-oxoisoindolin-2-yl)piperidine-2,6-dione] | 4.13 ± 1.43 nM | 
CCN(CC)CCNCCCCCCCCSc1cccc2c1CN(C1CCC(=O)NC1=O)C2=O (stereo not shown) [SIAIS1220037, 3-(4-((8-((2-(diethylamino)ethyl)amino)octyl)thio)-1-oxoisoindolin-2-yl)piperidine-2,6-dione] | 0.83 ± 0.39 nM | 
O=C1CCC(N2Cc3c(SCCCCCCCCCCCN4CCOCC4)cccc3C2=O)C(=O)N1 (stereo not shown) [SIAIS1220045, 3-(4-((11-morpholinoundecyl)thio)-1-oxoisoindolin-2-yl)piperidine-2,6-dione] | 0.36 ± 0.13 nM | 
CCN(CC)CCCCCCCCCCCSc1cccc2c1CN(C1CCC(=O)NC1=O)C2=O (stereo not shown) [SIAIS1220047, 3-(4-((11-(diethylamino)undecyl)thio)-1-oxoisoindolin-2-yl)piperidine-2,6-dione] | 0.11 ± 0.01 nM | 
CN1CCN(C2CCN(CCCCCCCCSc3cccc4c3CN(C3CCC(=O)NC3=O)C4=O)CC2)CC1 (stereo not shown) [SIAIS1220049, 3-(4-((8-(4-(4-methylpiperazin-1-yl)piperidin-1-yl)octyl)thio)-1-oxoisoindolin-2-yl)piperidine-2,6-dione] | 0.26 nM | 
CN1CCCN(CCCCCCCCSc2cccc3c2CN(C2CCC(=O)NC2=O)C3=O)CC1 (stereo not shown) [SIAIS1220051, 3-(4-((8-(4-methyl-1,4-diazepan-1-yl)octyl)thio)-1-oxoisoindolin-2-yl)piperidine-2,6-dione] | 0.75 nM | 

Continued, values first:

IC50 [1] | IC50 (read-out: IC50 against MM.1S cells (proliferation inhibition)) | SMILES
0.26 nM |  | O=C1CCC(N2Cc3c(SCCCCCCCCN4CCC(F)(F)CC4)cccc3C2=O)C(=O)N1 (stereo not shown) [SIAIS1220055, 3-(4-((8-(4,4-difluoropiperidin-1-yl)octyl)thio)-1-oxoisoindolin-2-yl)piperidine-2,6-dione]
0.77 nM |  | CC1CN(CCCCCCCCSc2cccc3c2CN(C2CCC(=O)NC2=O)C3=O)CC(C)N1 (stereo not shown) [SIAIS1220057, 3-(4-((8-(3,5-dimethylpiperazin-1-yl)octyl)thio)-1-oxoisoindolin-2-yl)piperidine-2,6-dione]
1.7 nM |  | O=C1CCC(N2Cc3c(SCCCCCCCCCSc4cccc5c4CN(C4CCC(=O)NC4=O)C5=O)cccc3C2=O)C(=O)N1 (stereo not shown) [SIAIS1220059B, 3,3′-((nonane-1,9-diylbis(sulfanediyl))bis(1-oxoisoindoline-4,2-diyl))bis(piperidine-2,6-dione)]
0.49 nM |  | O=C1CCC(N2Cc3c(SCCCCCCCCN4CCN(CCCCCCCCSc5cccc6c5CN(C5CCC(=O)NC5=O)C6=O)CC4)cccc3C2=O)C(=O)N1 (stereo not shown) [SIAIS1220061, 3,3′-(((piperazine-1,4-diylbis(octane-8,1-diyl))bis(sulfanediyl))bis(1-oxoisoindoline-4,2-diyl))bis(piperidine-2,6-dione)]
0.49 nM |  | O=C1CCC(N2Cc3c(SCCCCCCCCCN4CCOCC4)cccc3C2=O)C(=O)N1 (stereo not shown) [SIAIS1220065, 3-(4-((9-morpholinononyl)thio)-1-oxoisoindolin-2-yl)piperidine-2,6-dione]
0.25 nM |  | CCN(CC)CCCCCCCCCSc1cccc2c1CN(C1CCC(=O)NC1=O)C2=O (stereo not shown) [SIAIS1220067, 3-(4-((9-(diethylamino)nonyl)thio)-1-oxoisoindolin-2-yl)piperidine-2,6-dione]
3.21 nM |  | O=C1CCC(N2Cc3c(SCCCCCO)cccc3C2=O)C(=O)N1 (stereo not shown) [SIAIS1220069, 3-(4-((5-hydroxypentyl)thio)-1-oxoisoindolin-2-yl)piperidine-2,6-dione]
0.12 nM |  | O=C1CCC(N2Cc3c(SCCCCCCCCNC45CC6CC(CC(C6)C4)C5)cccc3C2=O)C(=O)N1 (stereo not shown) [SIAIS1220087, 3-(4-((8-((adamantan-1-yl)amino)octyl)thio)-1-oxoisoindolin-2-yl)piperidine-2,6-dione]
0.07 nM |  | O=C1CCC(N2Cc3c(SCCCCCCCCNC4C5CC6CC(C5)CC4C6)cccc3C2=O)C(=O)N1 (stereo not shown) [SIAIS1220089, 3-(4-((8-((adamantan-2-yl)amino)octyl)thio)-1-oxoisoindolin-2-yl)piperidine-2,6-dione]
8.2 nM |  | CC[N+](CC)(CC)CCCCCCCCSc1cccc2c1CN(C1CCC(=O)NC1=O)C2=O (stereo not shown) [SIAIS1220093, 8-((2-(2,6-dioxopiperidin-3-yl)-1-oxoisoindolin-4-yl)thio)-N,N,N-triethyloctan-1-aminium chloride]
0.06 nM |  | O=C1CCC(N2Cc3c(SCCCCCCCN4CCCCC4)cccc3C2=O)C(=O)N1 (stereo not shown) [SIAIS1220105, 3-(1-oxo-4-((7-(piperidin-1-yl)heptyl)thio)isoindolin-2-yl)piperidine-2,6-dione]
0.03 nM |  | CC(C)N(CCCCCCCSc1cccc2c1CN(C1CCC(=O)NC1=O)C2=O)C(C)C (stereo not shown) [SIAIS1220107, 3-(4-((7-(diisopropylamino)heptyl)thio)-1-oxoisoindolin-2-yl)piperidine-2,6-dione]
